According to patent publication US12649712B2, “Indene compounds, pharmaceutical compositions thereof, and their therapeutic applications” (NucMito Pharmaceuticals Co. Ltd., priority 2020, dated 2026):

What follows are compounds tested on alpha-smooth muscle actin (α-SMA) (assay: Inhibition of TGF-β induced expression of alpha-smooth muscle actin (α-SMA) in CFSC cells, western blot). Settings: compound at 10 μM, TGF-β (10 ng/mL), 24 hours, decrease in band intensity vs TGF-β only.
Type: cell-based
Method: The ability of a compound to inhibit the TGF-β induced expression of alpha-smooth muscle actin (α-SMA) was evaluated in CCL4-treated fat storing (CFSC) cells. α-SMA is considered as a reliable marker of hepatic stellate cell activation and a key biomarker for liver fibrosis. See, e.g., Meng et al., Nat. Rev. Nephrol. 2016, 12, 325-38; Fabregat et al., FEBS J. 2016, 283, 2219-32.
CFSC cells maintained in a DMEM medium supplemented with 10% fetal bovine serum were seeded to 12-well culture dishes and grown to a confluence of 60-70% the next day. Culture was changed to a serum-free DMEM medium and treated with a compound at 10 μM in the presence of TGF-β (10 ng/mL). The cells were incubated for another 24 hours. All culture was maintained at 37° C. in 5% carbon dioxide.
A NP-40 lysate solution (50 mM Tris (pH 7.4), 150 mM NaCl, 1% NP-40) with EDTA free cocktail added was used to lyse the cells on ice for 30 min. The lysate was collected and centrifuged at 4° C. for 10 min at 12,000 rpm. The pellet was discarded and the supernatant was transferred to a new tube. Cell lysates were loaded with 5×loading buffer and boiled for 10 min, resolved by 10% SDS-polyacrylamide gel electrophoresis (SDS-PAGE), and transferred to PVDF membrane. The membrane was blocked with 5% skim milk in Tris-buffered saline and TWEEN® 20 (TBST; 10 mM Tris-HCl (pH 8.0), 150 mM NaCl, 0.1% TWEEN® 20) for 1 h at room temperature and then incubated with α-SMA and […] antibodies overnight at 4° C. After washing twice with TBST, the membrane was probed with a horseradish […] anti-immunoglobulin (1:5000 dilution) for 1 h at room temperature. After two subsequent rinses in TBST, immunoreactive products were reacted with ECL and visualized by a UVP CHEMSTUDIO™ imaging system. The western blotting bands are quantitated using an ImageJ software. The percentage of inhibition was obtained by calculating the percentage decrease in the band intensity compared to the one treated with TGF-β only.
The results are summarized in Table 1, wherein A represents a value no less of 90% inhibition, B represents a value less than 90% but no less than 80% inhibition, C represents a value less than 80% but no less than 70% inhibition, D represents a value less than 70% but no less than 50% inhibition, and E represents a value less than 50% with a compound at 10 μM.

| Compound | inhibition at 10 µM [%] |
| --- | --- |
| CCCN(c1ccc(F)cc1)c1ccc(/C=C2/C(C)=C(CC(=O)O)c3cc(F)ccc32)cc1 [Compound A33, 2-[(1Z)-5-Fluoro-1-({4-[(4-fluorophenyl)(propyl)amino]phenyl}methylidene)-2-methyl-1H-inden-3-yl]acetic acid] | 70 to 80 |
| CC1=C(CC(=O)O)c2cc(F)ccc2/C1=C\c1ccc(N(CCO)c2ccc(F)cc2)cc1 [Compound A34, 2-[(1Z)-5-Fluoro-1-({4-[(4-fluorophenyl)(2-hydroxyethyl)amino]phenyl}-methylidene)-2-methyl-1H-inden-3-yl]acetic acid] | > 90 |
| CC1=C(CC(=O)O)c2cc(F)ccc2/C1=C\c1ccc(N(c2ccc(F)cc2)c2ccc(C=O)cc2)cc1 [Compound A35, 2-[(1Z)-5-Fluoro-1-({4-[(4-fluorophenyl)(4-formylphenyl)amino]phenyl}-methylidene)-2-methyl-1H-inden-3-yl]acetic acid] | > 90 |
| CC1=C(CC(=O)O)c2cc(F)ccc2/C1=C\c1ccc(N(c2ccccc2)c2ccc(C=O)cc2)cc1 [Compound A36, 2-[(1Z)-5-Fluoro-1-({4-[(4-formylphenyl)(phenyl)amino]phenyl}methylidene)-2-methyl-1H-inden-3-yl]acetic acid] | > 90 |
| CC1=C(CC(=O)NO)c2cc(F)ccc2/C1=C\c1ccc(N(Cc2ccccc2)c2ccc(F)cc2)cc1 [Compound A38, 2-[(1Z)-1-({4-[Benzyl(4-fluorophenyl)amino]phenyl}methylidene)-5-fluoro-2-methyl-1H-inden-3-yl]-N-hydroxyacetamide] | 70 to 80 |
| CC1=C(Cc2nnn[nH]2)c2ccccc2/C1=C\c1cccc(Oc2ccccc2)c1 [Compound A39, 5-{[(1Z)-2-Methyl-1-[(3-phenoxyphenyl)methylidene]-1H-inden-3-yl]methyl}-1H-1,2,3,4-tetrazole] | > 90 |
| CC1=C(Cc2nnn[nH]2)c2ccccc2/C1=C\c1ccc(Oc2ccccc2)cc1 [Compound A40, 5-{[(1Z)-2-Methyl-1-[(4-phenoxyphenyl)methylidene]-1H-inden-3-yl]methyl}-1H-1,2,3,4-tetrazole] | > 90 |
| CC1=C(CCc2nnn[nH]2)c2ccccc2/C1=C\c1ccc(Oc2ccc(Br)cc2)cc1 [Compound A42, 5-{2-[(1Z)-1-{[4-(4-Bromophenoxy)phenyl]methylidene}-2-methyl-1H-inden-3-yl]ethyl}-1H-1,2,3,4-tetrazole] | 70 to 80 |
| CC1=C(CCc2nnn[nH]2)c2ccccc2/C1=C\c1ccc(Oc2ccc(C(C)C)cc2)cc1 [Compound A43, 5-{2-[(1Z)-2-Methyl-1-({4-[4-(propan-2-yl)phenoxy]phenyl}methylidene)-1H-inden-3-yl]ethyl}-1H-1,2,3,4-tetrazole] | > 90 |
| CC1=C(CCc2nnn[nH]2)c2ccccc2/C1=C\c1ccc(Oc2ccc(C(F)(F)F)cc2)cc1 [Compound A45, 5-{2-[(1Z)-2-Methyl-1-({4-[4-(trifluoromethyl)phenoxy]phenyl}methylidene)-1H-inden-3-yl]ethyl}-1H-1,2,3,4-tetrazole] | > 90 |
| CC1=C(CCc2nnn[nH]2)c2ccccc2/C1=C\c1ccc(Oc2cccc(C)c2)cc1 [Compound A46, 5-{2-[(1Z)-2-Methyl-1-{[4-(3-methylphenoxy)phenyl]methylidene}-1H-inden-3-yl]ethyl}-1H-1,2,3,4-tetrazole] | > 90 |
| CC1=C(CCc2nnn[nH]2)c2ccccc2/C1=C\c1ccc(Oc2cccc(C#N)c2)cc1 [Compound A47, 3-(4-{[(1Z)-2-Methyl-3-[2-(1H-1,2,3,4-tetrazol-5-yl)ethyl]-1H-inden-1-ylidene]methyl}phenoxy)benzonitrile] | > 90 |
| COc1cccc(Oc2ccc(/C=C3/C(C)=C(CCc4nnn[nH]4)c4ccccc43)cc2)c1 [Compound A48, 5-{2-[(1Z)-1-{[4-(3-Methoxyphenoxy)phenyl]methylidene}-2-methyl-1H-inden-3-yl]ethyl}-1H-1,2,3,4-tetrazole] | > 90 |
| CC1=C(CCc2nnn[nH]2)c2ccccc2/C1=C\c1ccc(Oc2ccc3ccccc3c2)cc1 [Compound A51, 5-{2-[(1Z)-2-Methyl-1-{[4-(naphthalen-2-yloxy)phenyl]methylidene}-1H-inden-3-yl]ethyl}-1H-1,2,3,4-tetrazole] | > 90 |
| C1=C(Cc2nnn[nH]2)c2ccccc2/C1=C/c1cccc(Oc2ccccc2)c1 [Compound A54, 5-{[(1E)-1-[(3-Phenoxyphenyl)methylidene]-1H-inden-3-yl]methyl}-1H-1,2,3,4-tetrazole] | > 90 |
| CC1=C(CC(=O)O)c2cc(F)ccc2/C1=C\c1ccc(N2CCOCC2)cc1 [Compound A55, 2-[(1Z)-5-Fluoro-2-methyl-1-{[4-(morpholin-4-yl)phenyl]methylidene}-1H-inden-3-yl]acetic acid] | < 50 |
| CC1=C(CC(=O)O)c2cc(F)ccc2/C1=C\c1ccc(-n2cccc2)cc1 [Compound A60, 2-[(1Z)-5-Fluoro-2-methyl-1-{[4-(1H-pyrrol-1-yl)phenyl]methylidene}-1H-inden-3-yl]acetic acid] | < 50 |
| CC1=C(CC(=O)O)c2c(ccc(F)c2F)/C1=C\c1ccc(Oc2ccc(F)cc2)cc1 [Compound A68, 2-[(1Z)-4,5-Difluoro-1-{[4-(4-fluorophenoxy)phenyl]methylidene}-2-methyl-1H-inden-3-yl]acetic acid] | > 90 |
| CC1=C(CC(=O)O)c2c(ccc(F)c2C)/C1=C\c1ccc(Oc2ccc(F)cc2)cc1 [Compound A69, 2-[(1Z)-5-Fluoro-1-{[4-(4-fluorophenoxy)phenyl]methylidene}-2,4-dimethyl-1H-inden-3-yl]acetic acid] | > 90 |
| CC1=C(CC(=O)NO)c2cc(F)ccc2/C1=C\c1ccc(N(CCO)c2ccc(F)cc2)cc1 [Compound A85, 2-[(1Z)-5-Fluoro-1-({4-[(4-fluorophenyl)(2-hydroxyethyl)amino]phenyl}-methylidene)-2-methyl-1H-inden-3-yl]-N-hydroxyacetamide] | > 90 |
| CC1=C(CC(=O)O)c2cc(F)ccc2/C1=C\c1ccc(C(C)(C)C)cc1 [Compound B10, (Z)-2-(5-fluoro-2-methyl-1-(4-t-butylbenzylidene)-1H-inden-3-yl)acetic acid] | 70 to 80 |
| CC1=C(CCc2nnn[nH]2)c2ccccc2/C1=C\c1ccc(C(C)C)cc1 [Compound B30, (Z)-5-(2-(1-(4-isopropylbenzylidene)-2-methyl-1H-inden-3-yl)ethyl)-1H-tetrazole] | > 90 |
| CC1=C(CC(=O)O)c2cc(F)ccc2/C1=C\c1ccc2ccccc2c1 [Compound B34, 2-[(1Z)-5-fluoro-2-methyl-1-[(naphthalen-2-yl)methylidene]-1H-inden-3-yl]acetic acid] | > 90 |
| CC1=C(CC(=O)O)c2cc(F)ccc2/C1=C\c1ccc(C)c2ccccc12 [Compound B35, 2-[(1Z)-5-fluoro-2-methyl-1-[(4-methylnaphthalen-1-yl)methylidene]-1H-inden-3-yl]acetic acid] | > 90 |
| COc1ccc2ccccc2c1/C=C1/C(C)=C(CC(=O)O)c2cc(F)ccc21 [Compound B36, 2-[(1Z)-5-fluoro-1-[(2-methoxynaphthalen-1-yl)methylidene]-2-methyl-1H-inden-3-yl]acetic acid] | > 90 |
| CC1=C(CC(=O)O)c2cc(F)ccc2/C1=C\c1ccc(C2CC2)cc1 [Compound B37, 2-[(1Z)-1-[(4-cyclopropylphenyl)methylidene]-5-fluoro-2-methyl-1H-inden-3-yl]acetic acid] | 80 to 90 |
| C=C(C)c1ccc(/C=C2/C(C)=C(CC(=O)O)c3cc(F)ccc32)cc1 [Compound B39, 2-[(1Z)-5-fluoro-2-methyl-1-{[4-(prop-1-en-2-yl)phenyl]methylidene}-1H-inden-3-yl]acetic acid] | < 50 |
| CC1=C(CC(=O)O)c2cc(F)ccc2/C1=C\c1ccc(C(C(F)(F)F)C(F)(F)F)cc1 [Compound B42, 2-[(1Z)-5-fluoro-1-{[4-(1,1,1,3,3,3-hexafluoropropan-2-yl)phenyl]methylidene}-2-methyl-1H-inden-3-yl]acetic acid] | 80 to 90 |
| CC1=C(CC(=O)N(C)O)c2cc(F)ccc2/C1=C\c1ccc(Oc2ccccc2)cc1 [Compound C1, 2-[(1Z)-5-Fluoro-2-methyl-1-[(4-phenoxyphenyl)methylidene]-1H-inden-3-yl]-N-hydroxy-N-methylacetamide] | 80 to 90 |
